From patent publication US20250345392A1, “ANNEXIN A1 LIQUID PHARMACEUTICAL COMPOSITION” (ResoTher Pharma A/S, priority 2022, published 2025)
Like-named read-outs stand apart in the source and are kept apart here. Ends that are not written are not given here.

Experiment: Clinical test in humans, three 30-min i.v. infusions 8 hours apart, plasma PK
Format: in vivo
Details: human; for time of first measurable concentrations after the start of infusion: each infusion; for half-life / AUC(0-t) / AUC / Cmax / Tmax: in vivo, iv, three 30-min i.v. infusions 8 h apart; for half-life: after the last infusion; for AUC(0-t): read-out: AUC0-24
Protocol: A total of 8 subjects were included in each group. In each group, 6 subjects received the active treatment and 2 received the placebo. The active treatment was as follows in each group: • Group 9 received three 8 hours apart 30-min Peptide 1 intravenous (i.v.) infusions, wherein each i.v. infusion corresponded to a dose of 50 μg/kg. • Group 10 received three 8 hours apart 30-min Peptide 1 intravenous (i.v.) infusions, wherein each i.v. infusion corresponded to a dose of 100 μg/kg. • Group 11 received three 8 hours apart 30-min Peptide 1 intravenous (i.v.) infusions, wherein each i.v. infusion corresponded to a dose of 140 μg/kg. • Group 12 received three 8 hours apart 30-min Peptide 1 intravenous (i.v.) infusions, wherein each i.v. infusion corresponded to a dose of 200 μg/kg. • Group 13 received three 8 hours apart 30-min Peptide 1 intravenous (i.v.) infusions, wherein each i.v. infusion corresponded to a dose of 250 μg/kg.
The tested liquid pharmaceutical composition has a pH of 8.2-8.4, and comprises the following: • i) 5 mg/ml of Peptide 1, • ii) 4% (w/w) mannitol, • iii) 1% (w/w) sucrose, • iv) 0.01% (w/w) Polysorbate-80, • v) 10 mM glycyl-glycine, and • vi) sterile water for injection.
Venous whole blood samples were collected from all subjects.
Plasma samples were analyzed for Peptide 1 using validated Liquid chromatography—Tandem Mass spectrometry (LC-MS/MS) methods by Charles River Laboratories (CRL).
Derivation of PK parameters were carried out by PhinC Development using Phoenix WinNonlin® (Version Phoenix 8.1—Certara—Princeton—USA). A non-compartmental analysis (NCA) approach was chosen.
For the calculation of the PK parameters and characteristics the following rules were applied: • All the plasma concentrations validated by the bioanalytical laboratory and provided to the pharmacokinetics were used for the PK analysis. • The theoretical PK blood sampling time points were used. • At time points in the lag-time between time zero and the first concentration equal or above limit of quantification (LOQ), concentrations below the LOQ (BLQ) were set to zero (0). • Concentrations BLQ between 2 concentrations equal or above LOQ were considered as missing. • Trailing concentrations (at time point between time of last measurable concentrations and time of last blood sample) BLQ were not used in calculations. • For 3 infusions regimen, each infusion was considered separately and BLQ rules were applied for each infusion. […] If the pre-dose value was greater than 5% of Cmax, the subject was dropped from all statistical evaluations.
AUC0-tau was only calculated if there were at least 3 concentrations above LOQ. • AUC0-24: The area under the plasma concentration-time curve from time zero (pre-dose) to 24 h was calculated as the sum of the 3 AUC0-tau: AUC0-24=AUC0-tau1+AUC0-tau2+AUC0-tau3. • AUC0-t: The area under the concentration-time curve from time zero (pre-dose) to the time of last quantifiable concentration was calculated using a linear trapezoidal method after each administration (AUC0-t1, AUC0-t2 and AUC0-t3, where AUC0-t1 was AUC0-t corresponded to the AUC from pre-dose to the last measurable quantifiable concentration following the first infusion). AUC0-t was only calculated if there were at least 3 concentrations above LOQ. • ke: The terminal plasma elimination rate-constant was estimated from log-linear regression analysis of the terminal phase of the plasma concentration-time profile. The number of points included in the terminal phase was determined by visual inspection of the semi-log plots of the plasma concentration-time profiles. A minimum of 3 data points, including the last measured data point and excluding Cmax, had to be available for the regression. The correlation coefficient for the goodness of the fit of the regression line through the data points (r^2) had to be 0.8000 or higher, for the value to be considered reliable. […]

[1] = Group 12 (three infusions of 200 μg/kg)
[2] = Group 13 (three infusions of 250 μg/kg)
[3] = between 50 μg/kg t.i.d. and 250 μg/kg t.i.d. (dose increased by 5-fold)
[4] = between 100 μg/kg t.i.d. and 250 μg/kg t.i.d. (dose increased by 2.5-fold)
[5] = between 140 μg/kg t.i.d. and 250 μg/kg t.i.d. (dose increased by 1.8-fold)
[6] = between 200 μg/kg t.i.d. and 250 μg/kg t.i.d. (dose increased by 1.25-fold)
[7] = 100 ug/kg, 100 μg/kg each, mean
[8] = 140 ug/kg, 140 μg/kg each, mean
[9] = 200 ug/kg, 200 μg/kg each, mean
[10] = 250 ug/kg, 250 μg/kg each, mean

AMVSEFLKQAWFIENEEQEYVQTLKSSKGGPGSAVSPYPTFNPSSDV-NH2 [Peptide 1]
time up to which concentrations were measurable in all subjects after each infusion [1]: at least 4 h
time of first measurable concentrations after the start of infusion [1]: 0.16 h
time up to which concentrations were measurable in all subjects after each infusion [2]: at least 4 h
time of first measurable concentrations after the start of infusion [2]: 0.16 h
increase of GM of AUC0-24 [3]: 4.8 fold
increase of GM of Global Cmax [3]: 5.4 fold
increase of GM of AUC0-24 [4]: 2.1 fold
increase of GM of Global Cmax [4]: 2.2 fold
increase of GM of AUC0-24 [5]: 1.4 fold
increase of GM of Global Cmax [5]: 1.6 fold
increase of GM of AUC0-24 [6]: 0.9 fold
increase of GM of Global Cmax [6]: 1.0 fold
GM accumulation ratios on Cmax and AUC0-tau (between the first and the last infusion, dose range 50-250 μg/kg, no accumulation observed): around 1
half-life (50 ug/kg, 50 μg/kg each, GM): 1.37 h
AUC(0-t) (50 ug/kg, 50 μg/kg each, GM): 1560 ng·h/mL
AUC (50 ug/kg, 50 μg/kg each, GM, read-out: AUC0-t2): 416 ng·h/mL
AUC (50 ug/kg, 50 μg/kg each, GM, read-out: AUC0-t3): 433 ng·h/mL
AUC (50 ug/kg, 50 μg/kg each, GM, read-out: AUC0-tau2): 511 ng·h/mL
AUC (50 ug/kg, 50 μg/kg each, GM, read-out: AUC0-tau3): 538 ng·h/mL
Cmax (50 ug/kg, 50 μg/kg each, GM, read-out: Global Cmax): 420 ng/mL
Tmax (50 ug/kg, 50 μg/kg each, GM, read-out: Global tmax): 4.12 h
Tmax (50 ug/kg, 50 μg/kg each, GM, read-out: tmax3): 16.5 h
half-life (50 ug/kg, 50 μg/kg each, mean): 1.38 h
AUC(0-t) (50 ug/kg, 50 μg/kg each, mean): 1570 ng·h/mL
AUC (50 ug/kg, 50 μg/kg each, mean, read-out: AUC0-t1): 422 ng·h/mL
AUC (50 ug/kg, 50 μg/kg each, mean, read-out: AUC0-t2): 420 ng·h/mL
AUC (50 ug/kg, 50 μg/kg each, mean, read-out: AUC0-t3): 437 ng·h/mL
AUC (50 ug/kg, 50 μg/kg each, mean, read-out: AUC0-tau1): 513 ng·h/mL
Cmax (50 ug/kg, 50 μg/kg each, mean, read-out: Cmax3): 398 ng/mL
Cmax (50 ug/kg, 50 μg/kg each, mean, read-out: Global Cmax): 422 ng/mL
Tmax (50 ug/kg, 50 μg/kg each, median, read-out: Global tmax): 8.5 h
half-life (100 ug/kg, 100 μg/kg each, GM): 2.04 h
AUC (100 ug/kg, 100 μg/kg each, GM, read-out: AUC0-tau1): 1100 ng·h/mL
AUC (100 ug/kg, 100 μg/kg each, GM, read-out: AUC0-tau2): 1240 ng·h/mL
AUC (100 ug/kg, 100 μg/kg each, GM, read-out: AUC0-tau3): 1260 ng·h/mL
Cmax (100 ug/kg, 100 μg/kg each, GM, read-out: Global Cmax): 1020 ng/mL
Tmax (100 ug/kg, 100 μg/kg each, GM, read-out: Global tmax): 11.8 h
half-life [7]: 2.18 h
AUC(0-t) [7]: 3620 ng·h/mL
AUC (100 ug/kg, 100 μg/kg each, mean, read-out: AUC0-t2): 1130 ng·h/mL
AUC (100 ug/kg, 100 μg/kg each, mean, read-out: AUC0-t3): 1090 ng·h/mL
Tmax (100 ug/kg, 100 μg/kg each, median, read-out: Global tmax): 12.5 h
Tmax (100 ug/kg, 100 μg/kg each, median, read-out: tmax3): 16.5 h
AUC (140 ug/kg, 140 μg/kg each, GM, read-out: AUC0-t1): 1660 ng·h/mL
AUC (140 ug/kg, 140 μg/kg each, GM, read-out: AUC0-t2): 1760 ng·h/mL
AUC (140 ug/kg, 140 μg/kg each, GM, read-out: AUC0-tau1): 1740 ng·h/mL
AUC (140 ug/kg, 140 μg/kg each, GM, read-out: AUC0-tau2): 1850 ng·h/mL
AUC (140 ug/kg, 140 μg/kg each, GM, read-out: AUC0-tau3): 1690 ng·h/mL
Cmax (140 ug/kg, 140 μg/kg each, GM, read-out: Global Cmax): 1400 ng/mL
Tmax (140 ug/kg, 140 μg/kg each, GM, read-out: Global tmax): 3.29 h
half-life [8]: 1.94 h
AUC(0-t) [8]: 5410 ng·h/mL
AUC (140 ug/kg, 140 μg/kg each, mean, read-out: AUC0-t1): 1690 ng·h/mL
AUC (140 ug/kg, 140 μg/kg each, mean, read-out: AUC0-t2): 1870 ng·h/mL
AUC (140 ug/kg, 140 μg/kg each, mean, read-out: AUC0-t3): 1600 ng·h/mL
AUC (140 ug/kg, 140 μg/kg each, mean, read-out: AUC0-tau1): 1760 ng·h/mL
AUC (140 ug/kg, 140 μg/kg each, mean, read-out: AUC0-tau2): 1940 ng·h/mL
Cmax (140 ug/kg, 140 μg/kg each, mean, read-out: Global Cmax): 1430 ng/mL
Tmax (140 ug/kg, 140 μg/kg each, median, read-out: Global tmax): 8.41 h
Tmax (140 ug/kg, 140 μg/kg each, median, read-out: tmax3): 16.5 h
half-life (200 ug/kg, 200 μg/kg each, GM): 1.93 h
AUC(0-t) (200 ug/kg, 200 μg/kg each, GM): 8020 ng·h/mL
AUC (200 ug/kg, 200 μg/kg each, GM, read-out: AUC0-t2): 2560 ng·h/mL
AUC (200 ug/kg, 200 μg/kg each, GM, read-out: AUC0-t3): 2690 ng·h/mL
AUC (200 ug/kg, 200 μg/kg each, GM, read-out: AUC0-tau1): 2590 ng·h/mL
AUC (200 ug/kg, 200 μg/kg each, GM, read-out: AUC0-tau2): 2650 ng·h/mL
Cmax (200 ug/kg, 200 μg/kg each, GM, read-out: Global Cmax): 2350 ng/mL
Tmax (200 ug/kg, 200 μg/kg each, GM, read-out: Global tmax): 2.57 h
half-life [9]: 1.94 h
AUC(0-t) [9]: 8120 ng·h/mL
AUC (200 ug/kg, 200 μg/kg each, mean, read-out: AUC0-t1): 2520 ng·h/mL
AUC (200 ug/kg, 200 μg/kg each, mean, read-out: AUC0-t2): 2610 ng·h/mL
AUC (200 ug/kg, 200 μg/kg each, mean, read-out: AUC0-t3): 2720 ng·h/mL
AUC (200 ug/kg, 200 μg/kg each, mean, read-out: AUC0-tau1): 2620 ng·h/mL
AUC (200 ug/kg, 200 μg/kg each, mean, read-out: AUC0-tau2): 2690 ng·h/mL
AUC (200 ug/kg, 200 μg/kg each, mean, read-out: AUC0-tau3): 2810 ng·h/mL
Tmax (200 ug/kg, 200 μg/kg each, median, read-out: Global tmax): 4.5 h
Tmax (200 ug/kg, 200 μg/kg each, median, read-out: tmax3): 16.5 h
AUC(0-t) (250 ug/kg, 250 μg/kg each, GM): 7490 ng·h/mL
AUC (250 ug/kg, 250 μg/kg each, GM, read-out: AUC0-t3): 2410 ng·h/mL
AUC (250 ug/kg, 250 μg/kg each, GM, read-out: AUC0-tau1): 2590 ng·h/mL
AUC (250 ug/kg, 250 μg/kg each, GM, read-out: AUC0-tau2): 2390 ng·h/mL
Cmax (250 ug/kg, 250 μg/kg each, GM, read-out: Global Cmax): 2260 ng/mL
Tmax (250 ug/kg, 250 μg/kg each, GM, read-out: Global tmax): 3.69 h
Tmax (250 ug/kg, 250 μg/kg each, GM, read-out: tmax1): 0.46 h
half-life [10]: 1.88 h
AUC(0-t) [10]: 7550 ng·h/mL
AUC (250 ug/kg, 250 μg/kg each, mean, read-out: AUC0-t1): 2540 ng·h/mL
AUC (250 ug/kg, 250 μg/kg each, mean, read-out: AUC0-t2): 2350 ng·h/mL
